Reference: patent US20230134869A1, “CRYSTAL FORM OF FREE ALKALI OF NITROGEN-CONTAINING AROMATIC DERIVATIVES” (Shanghai Hansoh Biomedical Co., Ltd., priority 2020, published 2023)
≈ marks a conversion by molar mass, not a printed value. Each block holds one compound with its values, some of them ahead of it.

Key:
[1] = Pharmacokinetics assay in rats; format: in vivo; settings: SD rats
Description: SD rats were used as test animals.
(§1) The solution was subjected to ultrasound to obtain a clear solution. […] The concentration was 0.2 mg/mL.
After an overnight fast, male SD rats (3 rats per group) were administered intravenously with the test compounds at an administration dose of 1 mg/kg and an administration volume of 5 mL/kg.
0.2 mL of blood was taken from jugular vein before administration and at 0 minute, 5 minutes, 15 minutes, 0.5 hour, 1.0 hour, 2.0 hours, 4.0 hours, 8.0 hours and 24.0 hours after administration. The blood samples were stored in EDTA-2K tubes, and centrifuged for 6 minutes at 6000 rpm, at 4° C. to separate the blood plasma. The plasma samples were stored at −80° C.

[2] = Pharmacokinetics assay in mice; format: in vivo; settings: Balb/c mice
Description: (§2) Balb/c mice were used as test animals.
as §1
After an overnight fast, male Balb/c mice were administered intravenously with the test compounds at an administration dose of 1 mg/kg and an administration volume of 5 mL/kg.
Blood was taken before administration and at 0 minute, 5 minutes, 15 minutes, 0.5 hour, 1.0 hour, 2.0 hours, 4.0 hours, 8.0 hours and 24.0 hours after administration. The blood samples were stored in EDTA-2K tubes, and centrifuged for 6 minutes at 6000 rpm, at 4° C. to separate the blood plasma. The plasma samples were stored at −80° C. The mice were fed 4 hours after administration.

[3] = Tolerance assay in mice (body weight, abnormal responses); format: in vivo, Balb/c mice; settings: oral 10 mg/kg QD
Description: as §2
5 g of hydroxyethyl cellulose (HEC, CMC-Na, viscosity: 800-1200 Cps) was dissolved in 1000 mL of purified water, and 10 g of Tween 80 was added. The solution was mixed well to form a clear solution.
The solution was subjected to ultrasound for 10 minutes to obtain a colorless and clear solution with a concentration of 1 mg/mL.
After an overnight fast, Balb/c mice (3 male and 3 female) were administrated orally with the test compound at an administration dose of 10 mg/kg and an administration volume of 10 mL/kg.
The mice were weighed daily before and after administration, and abnormal responses were observed. The mice were fed 4 hours after administration.

[4] = Solubility experiment in different media (crystal form A of the Example 35 compound); format: physicochemical; settings: 37° C., 2 hours, buffers pH 1 to 8, water, FaSGF, FaSSIF, FeSSIF
[5] = Determination of stable crystal form by comparing DSC spectrums (Example 35 compound); format: physicochemical
From the text: The objective is to find stable crystal forms of the compound (S)-8-(6-amino-5-((2-amino-3-chloropyridin-4-yl)thio)pyrazin-2-yl)-2-cyclopropyl-8-azaspiro[4.5]dec-2-en-1-amine by polymorphic screening.
Three crystal forms of (S)-8-(6-amino-5-((2-amino-3-chloropyridin-4-yl)thio)pyrazin-2-yl)-2-cyclopropyl-8-azaspiro[4.5]dec-2-en-1-amine, i.e., crystal forms A, B and C, were obtained by pulping, changing crystallization solvent and crystallization method.

[6] = Crystal transformation investigation: pressure (tabletting) and grinding; format: physicochemical; settings: compressed into tablets; ground 15 minutes
From the text: The tablets were mashed to powder and characterized by XRPD.

[7] = Solid stability experiment: high temperature, high humidity (crystal form A of the Example 35 compound); format: physicochemical; settings: 60° C.; room temperature/92.5% RH; 50° C. and 75% RH; 5, 10, 20 and 30 days
Description: (§3) The content was determined by HPLC using the external standard method. The related substance change was calculated by chromatographic peak area normalization method.

[8] = Hygroscopicity experiment (crystal form A of the Example 35 compound); format: physicochemical
[9] = Pharmacokinetics study in rats of crystal form A of the Example 35 compound, single oral administration; format: in vivo; settings: SD rats, intragastric, 10 mg/kg
[10] = Solubility experiment in different media (crystal form B of the Example 53 compound); format: physicochemical; settings: thermodynamic from solid, 37° C.
Description: The solubility of crystal form B of (S)-1′-(6-amino-5-((2-amino-3-chloropyridin-4-yl)thio)-3-fluoropyrazin-2-yl)-1,3-dihydrospiro[indene-2,4′-piperidin]-1-amine in media such as water, Simulated Gastric Fluid (SGF), Fasted State Simulated Intestinal Fluid (FaSSIF) and Fed State Simulated Intestinal Fluid (FeSSIF) was compared, so as to provide a basis for evaluating the druggability.
About 2 mg of crystal form B of (S)-1′-(6-amino-5-((2-amino-3-chloropyridin-4-yl)thio)-3-fluoropyrazin-2-yl)-1,3-dihydrospiro[indene-2,4′-piperidin]-1-amine was suspended in different media for 24 hours, respectively.

[11] = Solid stability experiment under light (amorphous form, crystal forms A and B of the Example 53 compound); format: physicochemical
Description: as §3

[12] = Hygroscopicity experiment (crystal form B of the Example 53 compound); format: physicochemical
From the text: The hygroscopicity of crystal form B of the compound (S)-1′-(6-amino-5-((2-amino-3-chloropyridin-4-yl)thio)-3-fluoropyrazin-2-yl)-1,3-dihydrospiro[indene-2,4′-piperidin]-1-amine under different relative humidity conditions was investigated, so as to provide a basis for the crystal form screening and storage of the compound.
Crystal form B of (S)-1′-(6-amino-5-((2-amino-3-chloropyridin-4-yl)thio)-3-fluoropyrazin-2-yl)-1,3-dihydrospiro[indene-2,4′-piperidin]-1-amine was placed in saturated water vapor with different relative humidity to achieve dynamic equilibrium between the compound and water vapor, and the percentage of hygroscopic weight gain of the compound after the equilibrium was calculated.

[13] = Polymorphic screening and determination of stable crystal form (Example 53 compound), DSC comparison; format: physicochemical
From the text: The objective is to find stable crystal forms of (S)-1′-(6-amino-5-((2-amino-3-chloropyridin-4-yl)thio)-3-fluoropyrazin-2-yl)-1,3-dihydrospiro[indene-2,4′-piperidin]-1-amine by polymorphic screening.
Organic solvents and water with a certain solubility was chosen to suspend (S)-1′-(6-amino-5-((2-amino-3-chloropyridin-4-yl)thio)-3-fluoropyrazin-2-yl)-1,3-dihydrospiro[indene-2,4′-piperidin]-1-amine in the solvent system, and the mixture was stirred and slurried at room temperature for one week, and then centrifuged. The supernatant was discarded, and the solid was dried under vacuum (−0.1 Mpa) at 40° C. overnight. The XRPD, DSC and TGA of the solid was determined and compared.
Five crystal forms of (S)-1′-(6-amino-5-((2-amino-3-chloropyridin-4-yl)thio)-3-fluoropyrazin-2-yl)-1,3-dihydrospiro[indene-2,4′-piperidin]-1-amine, i.e., crystal forms A, B, C, D and E, were obtained by pulping, changing crystallization solvent and crystallization method.

[14] = Light 5000 ± 500 lux (sealed), Day 0
[15] = Light 5000 ± 500 lux (sealed), Day 5
[16] = Light 5000 ± 500 lux (sealed), Day 10

Compound: Nc1nc(N2CCC3(CC2)Cc2ccccc2[C@H]3N)c(F)nc1Sc1ccnc(N)c1Cl [Example 53, (S)-1′-(6-amino-5-((2-amino-3-chloropyridin-4-yl)thio)-3-fluoropyrazin-2-yl)-1,3-dihydrospiro[indene-2,4′-piperidin]-1-amine]
F [1]: 118% | F [2]: 71% | Body weight (Mean), Day 1 ([3]; female Balb/c mice): 22.07 g | Body weight (Mean), Day 16 ([3]; female Balb/c mice): 25.09 g | Body weight changes ΔW/W1 (Mean), Day 16 ([3]; female Balb/c mice): 13.80% | Body weight (Mean), Day 1 ([3]; male Balb/c mice): 23.01 g | Body weight (Mean), Day 16 ([3]; male Balb/c mice): 28.30 g | Body weight changes ΔW/W1 (Mean), Day 16 ([3]; male Balb/c mice): 23.25%

Compound: Nc1nc(N2CCC3(CC=C(C4CC4)[C@H]3N)CC2)cnc1Sc1ccnc(N)c1Cl [(S)-8-(6-amino-5-((2-amino-3-chloropyridin-4-yl)thio)pyrazin-2-yl)-2-cyclopropyl-8-azaspiro[4.5]dec-2-en-1-amine]
Solubility compared in different media [4]: better solubility under acidic conditions | Thermodynamic stability by comparing DSC spectrums of crystal forms A, B and C [5]: better thermodynamic stability | Crystal transformation after tabletting and grinding (XRPD) [6]: didn't undergo crystal transformation | Impurity increase [7]: less than 0.15% | Crystal form (XRPD) after one cycle of humidification and dehumidification ([8]; 0 to 95% relative humidity): the crystal form didn't transform | Hygroscopic weight gain ([8]; RH 80%): about 0.544% | Hygroscopicity ([8]; RH 80%): slight hygroscopicity | Metabolic property (pharmacokinetics experiment in rats) [9]: good metabolic property

Compound: Nc1nc(N2CCC3(CC2)Cc2ccccc2[C@H]3N)c(F)nc1Sc1ccnc(N)c1Cl [(S)-1′-(6-amino-5-((2-amino-3-chloropyridin-4-yl)thio)-3-fluoropyrazin-2-yl)-1,3-dihydrospiro[indene-2,4′-piperidin]-1-amine]
solubility thermodynamic at 24 h ([10]; simulated gastric fluid, SGF): 2050 µg/mL (≈ 4340 µM) | solubility thermodynamic at 24 h ([10]; Fa (Fasted State Simulated Intestinal Fluid, FaSSIF)): 170 µg/mL (≈ 360 µM) | solubility thermodynamic at 24 h ([10]; Fe (Fed State Simulated Intestinal Fluid, FeSSIF)): 64 µg/mL (≈ 136 µM) | solubility thermodynamic at 24 h ([10]; water): 1 µg/mL (≈ 2.12 µM)

Now from value to compound, other results behind:

10-day total impurities gain ([11]; light 5000 lx±500 lx, 10 days): 19.34%
Compound: Nc1nc(N2CCC3(CC2)Cc2ccccc2[C@H]3N)c(F)nc1Sc1ccnc(N)c1Cl [amorphous form of (S)-1′-(6-amino-5-((2-amino-3-chloropyridi] [(S)-1′-(6-amino-5-((2-amino-3-chloropyridin-4-yl)thio)-3-fluoropyrazin-2-yl)-1,3-dihydrospiro[indene-2,4′-piperidin]-1-amine]

Crystal form (XRPD) after one cycle of humidification and dehumidification ([12]; 0 to 95% relative humidity): the crystal form didn't transform | Hygroscopic weight gain ([12]; RH 80%): about 1.639% | Hygroscopicity ([12]; RH 80%): slight hygroscopicity | Content (HPLC) Day 0 [11, 14]: 98.34% | Total impurities [11, 14]: 1.66% | Content (HPLC) Day 5 [11, 15]: 97.28% | Total impurities [11, 15]: 2.72% | Total impurities gain ([11]; Light 5000 ± 500 lux (sealed), Day 5 vs Day 0): 1.06% | Content (HPLC) Day 10 [11, 16]: 96.46% | Total impurities [11, 16]: 3.54% | Total impurities gain ([11]; Light 5000 ± 500 lux (sealed), Day 10 vs Day 0): 1.88%
Compound: Nc1nc(N2CCC3(CC2)Cc2ccccc2[C@H]3N)c(F)nc1Sc1ccnc(N)c1Cl [crystal form B of (S)-1′-(6-amino-5-((2-amino-3-chloropyridi] [(S)-1′-(6-amino-5-((2-amino-3-chloropyridin-4-yl)thio)-3-fluoropyrazin-2-yl)-1,3-dihydrospiro[indene-2,4′-piperidin]-1-amine]
Thermodynamic stability by comparing DSC spectrums of crystal forms A, B, C, D and E [13]: best thermodynamic stability among the five crystal forms
